The values below come from US20220162610A1, “NOVEL RNA TRANSCRIPT” (PTC Therapeutics, Inc., priority 2020, published 2022).

One series deals with HTT pre-mRNA. Description: Ampliseq/RNAseq analysis of intron 49 pseudoexon inclusion and HTT expression in different cell types. The note with it: for inclusion of intron 49 pseudoexon: HD fibroblasts, SH-SY5Y, TK6, MRC-5 cells. The format is cell-based, human.
Series [1] is described as follows: Unbound brain partition coefficient (Kp,uu) from mouse PK studies. It counts as in vivo. The note with it: FVB (WT littermates of the BACHD colony), brain and plasma (unbound), oral, 10 mg/kg, average over animals of multiple mouse PK studies. The procedure:
Oral pharmacokinetics (PK) of compounds was evaluated in WT littermates from the BACHD colony (FVB background). Mice were treated with test compounds (10 mg/kg) by oral gavage in 0.5% hydroxypropylmethyl cellulose (HPMC) with 0.1% Tween 80. Blood was collected by terminal cardiac puncture at specified time points (3 mice per time point) and centrifuged to generate plasma. Brain tissue was collected at the time of blood collection and homogenized in water. Protein was precipitated from plasma and brain homogenates with acetonitrile, methanol mixture (5:1, v:v) containing an internal standard that is a close analog of the test compounds. The mixture was filtered through an EMD Millipore MultiScreen™ Solvinert Filter Plate (MSRLN04, Millipore, Burlington, Mass.). Calibration standards were prepared in the same matrix and processed with the testing samples. Filtrates were analysed using Acquity ultra performance liquid chromatography (UPLC) system (Waters Corporation) tandem with Xevo TQ-s Spectrometer (Waters Corporation). Samples were injected on to a Waters UPLC Acquity BEH C18 Column (2.1*50 mm, 1.7 μm) maintained at 50° C. The injection volume was 3 μL and the mobile phase flow rate was 0.45 mL/min. The mobile phase consisted of 2 solvents: A) 0.1% formic acid in water and B) 0.1% formic acid in acetonitrile. The initial mobile phase started with 5% solvent B for 0.4 min, which was changed to […] over 0.8 min with linear gradients and then maintained at 95% solvent B for another 0.4 min. The drug concentrations were acquired and processed with MassLynx 4.1 software. PK parameters were estimated using the non-compartment method within Phoenix® WinNonlin® Build 8.1 (Certara USA, Inc., Princeton, N.J.).
The unbound brain partition coefficient (Kp,uu) is defined as the ratio between unbound brain free drug concentration and unbound plasma concentration. It was calculated using the following equation:
Kp,uu=Cbrain×fu,b/(Cplasma*fu,p)
Cbrain and Cplasma represent the compound concentrations in brain and plasma, respectively. fu,b and fu,p are the unbound fraction of each testing article in brain and plasma, respectively. Both fu,b and fu,p were determined in vitro using Pierce Rapid Equilibrium Dialysis (RED) device at Absorption System LLC (Exton, Pa.). Kp,uu was calculated individually for each animal from multiple mouse PK studies and the average values are reported here.

The next series has as its system HTT mRNA. Description: RT-qPCR quantification of HTT mRNA in HD patient fibroblasts, 24 h. The note with it: fibroblasts derived from HD patients. It counts as cell-based, human. The procedure: Test compounds were serially diluted 3-fold in 100% DMSO to generate a 7-point concentration curve. A solution of test compound (500 nl, 200× in DMSO) was added to each test well with Acoustic Transfer System. Fibroblasts were seeded in 96-well flat-bottomed plates (Thermo Fisher Scientific) at 1×10^4 cells/well in 100 μl of culture medium containing the test compound or DMSO vehicle control and incubated for 24 hours (37° C., 5% CO2, 100% relative humidity). After removal of the supernatant, cells were lysed in RNA lysis buffer (1M Tris-HCL pH 7.4, 5M NaCl, 10% IGEPAL®CA-630; 50 μL/well) for 1 minute at RT, before 50 μL of chilled nuclease free water was added to each well; plates were then transferred immediately onto ice before storing at −80° C. overnight.
Cell lysates were assayed by quantitative reverse transcriptase polymerase chain reaction (RT-qPCR) to measure mRNA levels of HTT and glyceraldehyde 3-phosphate dehydrogenase (GAPDH) in the presence or absence of the test compound.
A reverse transcriptase quantitative polymerase chain reaction (RT-qPCR) reaction mixture of primers and probe sets for HTT and GAPDH was prepared according to TABLE III. […]
(In general: In qPCR the cycle at which signal appears reflects the starting amount.)

The target of another series is T1, MDR1 (Homo sapiens, UniProt P08183).
T1 construct: host or cells: MDCK (Madin-Darby Canine Kidney) cells expressing MDR1
Description: MDCK-MDR1 efflux assay. It counts as in vitro ADME. The note with it: 10 μM, MDCK-MDR1 and MDCK-WT monolayers, 1 hour. As to the method:
The MDR1 efflux assay was conducted at Absorption System LLC (Exton, Pa.). Briefly, MDCK-MDR1 and MDCK-WT cell monolayers were grown to confluence on collagen-coated, microporous membranes in 12-well assay plates (Thermofisher). Compound solutions (10 μM) in permeability assay buffer (Hanks' balanced salt solution (HBSS), 10 mM HEPES, 15 mM glucose; pH of 7.4) were placed in the donor chamber. The receiver chamber was filled with assay buffer plus 1% BSA. Cell monolayers were dosed on the apical side (A-to-B) or basolateral side (B-to-A) and incubated at 37° C. (5% CO2, 100% relative humidity). Sampling from the donor chambers was performed at 0 and 1 hour; and from the receiver chambers at 1 hour. Each determination was performed in duplicate. The flux of lucifer yellow was also measured post-experimentally for each monolayer to ensure no damage was inflicted to the cell monolayers during the flux period. All samples were assayed by LC-MS/MS using electrospray ionisation. The apparent permeability (Papp) and percent recovery was determined using the following equation: […]
dCr/dt represents the slope of the cumulative receiver concentration versus time in μM/s; Vr is the volume of the receiver compartment (cm3); Vd is the volume of the donor compartment in (cm3); A is the area of the insert (1.13 cm2 for 12-well); C0 is the average measured concentration of the donor chamber at time zero in μM; Net Efflux ratio (ER) is defined as […].

T1 sequence (P08183 whole entry): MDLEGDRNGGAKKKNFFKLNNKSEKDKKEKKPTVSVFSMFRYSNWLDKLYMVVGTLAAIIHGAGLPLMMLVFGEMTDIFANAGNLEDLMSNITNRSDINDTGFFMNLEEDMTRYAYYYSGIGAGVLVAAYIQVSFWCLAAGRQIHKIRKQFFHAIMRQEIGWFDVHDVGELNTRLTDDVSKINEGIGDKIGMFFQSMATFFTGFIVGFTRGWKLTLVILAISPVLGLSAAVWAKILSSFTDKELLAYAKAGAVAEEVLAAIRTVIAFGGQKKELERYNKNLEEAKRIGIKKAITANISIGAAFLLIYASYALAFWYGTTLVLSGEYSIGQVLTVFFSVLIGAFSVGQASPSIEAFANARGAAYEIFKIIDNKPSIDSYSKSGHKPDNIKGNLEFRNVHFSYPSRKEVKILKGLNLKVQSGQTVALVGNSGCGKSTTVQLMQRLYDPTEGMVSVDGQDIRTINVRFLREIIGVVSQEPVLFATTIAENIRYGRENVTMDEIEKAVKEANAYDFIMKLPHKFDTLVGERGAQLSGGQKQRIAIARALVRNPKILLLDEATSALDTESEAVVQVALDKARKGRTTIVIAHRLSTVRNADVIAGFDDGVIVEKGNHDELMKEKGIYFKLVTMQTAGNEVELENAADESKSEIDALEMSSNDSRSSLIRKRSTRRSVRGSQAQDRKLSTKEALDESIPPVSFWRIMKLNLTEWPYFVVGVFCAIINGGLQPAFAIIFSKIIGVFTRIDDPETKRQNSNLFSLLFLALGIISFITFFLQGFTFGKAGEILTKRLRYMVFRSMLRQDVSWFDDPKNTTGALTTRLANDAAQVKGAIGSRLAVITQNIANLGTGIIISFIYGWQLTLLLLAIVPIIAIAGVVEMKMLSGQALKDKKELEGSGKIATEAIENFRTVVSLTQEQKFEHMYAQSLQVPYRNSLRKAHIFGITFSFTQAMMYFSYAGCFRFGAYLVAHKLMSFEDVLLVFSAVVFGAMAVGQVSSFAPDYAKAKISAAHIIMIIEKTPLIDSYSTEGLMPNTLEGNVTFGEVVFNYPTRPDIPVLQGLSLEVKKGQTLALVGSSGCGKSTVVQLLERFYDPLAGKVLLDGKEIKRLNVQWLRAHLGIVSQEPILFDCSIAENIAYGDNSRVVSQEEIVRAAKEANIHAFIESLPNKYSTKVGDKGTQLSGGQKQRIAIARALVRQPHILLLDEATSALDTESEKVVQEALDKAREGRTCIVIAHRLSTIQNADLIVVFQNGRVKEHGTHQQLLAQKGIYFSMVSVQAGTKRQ

Regarding `CC1(C)CC(Oc2ccc(-c3ccc(-c4cn[nH]c4)cc3O)nn2)CC(C)(C)N1` [HTT-C2], the “HTT gene expression quantified using RNAseq (FPKM)” value in the series on HTT pre-mRNA (100 nM, SHSY5Y cells (HTT-C2), TK6 cells (HTT-C3)) is “reduced HTT gene expression”. The “inclusion of intron 49 pseudoexon” value in the series on HTT pre-mRNA is reported as “induced the inclusion of an Intron 49 pseudoexon”. The molecule also displayed a Kp uu in series [1] of 0.179.
Consider `CC1(C)CC(Oc2ccc(-c3ccc(-c4ccnc(O)c4)cc3O)nn2)CC(C)(C)N1` [HTT-C1], for which the “inclusion of intron 49 pseudoexon” value in the series with HTT pre-mRNA is reported as “induced the inclusion of an Intron 49 pseudoexon”. Also, the “amount of HTT mRNA” value in the series on HTT mRNA is listed as “dose-dependent decrease”. Also, in series [1], the Kp uu stood at 0.084. Moreover, the “NET MDR1 ER” value on MDR1 was above 62.7.
`CCN1CCC(c2cc(C)c3nc(-c4ccc5nn(C)cc5c4)cc(=O)n3c2)CC1` [HTT-D1]: in the series with HTT mRNA, the “amount of HTT mRNA” value is on record as “dose-dependent decrease”. The Kp uu in series [1] was determined as 0.242. Besides, the “NET MDR1 ER” value on MDR1 is recorded as 11.8.
For `CCN1CCC(c2cc3c(F)cc(-c4cc(C)c5nc(C)cn5n4)cc3nn2)CC1` [HTT-D3], in the series on HTT pre-mRNA, the “inclusion of intron 49 pseudoexon” value is listed as “induced the inclusion of an Intron 49 pseudoexon”. The molecule further displayed a Kp uu in series [1] of 0.472. Further, the “NET MDR1 ER” value at MDR1 is 7.10.
